From ChEMBL document CHEMBL5360612, “Macrocyclic Carbon-Linked Pyrazoles As Novel Inhibitors of MCL-1” (ACS Med Chem Lett, 2023)
pIC50, pKi: −log10 of the molar value. In brackets after ≈: the same amount, converted by molar mass. Several values for one entry are separate records, joined by “and”; a condition that tells them apart may be missing. Equal values may be shown once.

Columns and labels:
MOLP-8 = experiment: Induction of apoptosis in human MOLP8 cells using luminescent caspase-3/7 as substrate incubated for 2 hrs by Caspase-Glo 3/7 assay; assay type: functional, cell-based; details: MOLP-8, 2 h
[1] = target: Induced myeloid leukemia cell differentiation protein Mcl-1 (Homo sapiens, UniProt Q07820); experiment: Displacement of Cy5-labeled BIM BH3 peptide (H3N-(C/Cy5Mal)-WIAQELRRIGDEFN-OH) from MCL-1 (unknown origin) assessed as inhibition constant incubated for 60 mins by HTRF assay
[2] = Ratio of AC50 for induction of apoptosis in human MOLP8 cells using luminescent caspase-3/7 as substrate to Ki for displacement of Cy5-labeled BIM BH3 peptide (H3N-(C/Cy5Mal)-WIAQELRRIGDEFN-OH) from MCL-1 (unknown origin) assessed as inhibition constant
[3] = Solubility of compound in pH 2 buffer incubated for 3 days by LC-MS/MS analysis; assay type: physicochemical; details: time 3 day
[4] = Solubility of compound in pH 7 buffer incubated for 3 days by LC-MS/MS analysis; assay type: physicochemical; details: time 3 day
Cytochrome P450 2C19 = Cytochrome P450 2C19 (Homo sapiens, UniProt P33261); experiment: Inhibition of recombinant human CYP2C19 by fluorescence microplate reader assay; assay type: ADME
[5] = Cardiotoxicity in human iPSC-CM assessed as calcium transients at 0.3 uM by CTCM assay; assay type: toxicity, cell-based
KMS-12-PE [6] = experiment: Induction of apoptosis in MCL-1 knockout human KMS-12-PE cells overexpressing BFL-1; assay type: functional, cell-based
[7] = Cardiotoxicity in human iPSC-CM assessed as calcium transients at 3 uM by CTCM assay; assay type: toxicity, cell-based
[8] = Intrinsic clearance in mouse liver microsomes; assay type: ADME, Microsome; details: read-out: CLH
Cytochrome P450 1A2 = target: T1, Cytochrome P450 1A2 (Homo sapiens, UniProt P05177); experiment: Inhibition of recombinant human CYP1A2 by fluorescence microplate reader assay; assay type: ADME
T1 sequence (P05177 whole entry): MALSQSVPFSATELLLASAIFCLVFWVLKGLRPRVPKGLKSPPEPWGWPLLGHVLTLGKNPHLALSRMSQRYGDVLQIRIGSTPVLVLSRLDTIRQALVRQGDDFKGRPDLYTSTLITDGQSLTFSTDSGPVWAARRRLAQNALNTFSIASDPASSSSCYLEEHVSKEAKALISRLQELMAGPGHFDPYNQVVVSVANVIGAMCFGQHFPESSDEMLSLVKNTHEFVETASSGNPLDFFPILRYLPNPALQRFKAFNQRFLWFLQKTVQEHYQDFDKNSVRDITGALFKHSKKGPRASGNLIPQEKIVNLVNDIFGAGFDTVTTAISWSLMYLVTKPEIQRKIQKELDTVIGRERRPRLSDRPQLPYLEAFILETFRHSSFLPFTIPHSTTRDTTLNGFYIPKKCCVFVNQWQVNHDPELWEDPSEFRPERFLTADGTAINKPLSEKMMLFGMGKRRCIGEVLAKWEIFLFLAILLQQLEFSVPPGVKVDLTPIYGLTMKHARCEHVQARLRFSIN

Cytochrome P450 2C8 = target: T2, Cytochrome P450 2C8 (Homo sapiens, UniProt P10632); experiment: Inhibition of recombinant human CYP2C8 by fluorescence microplate reader assay; assay type: ADME
T2 sequence (P10632 whole entry): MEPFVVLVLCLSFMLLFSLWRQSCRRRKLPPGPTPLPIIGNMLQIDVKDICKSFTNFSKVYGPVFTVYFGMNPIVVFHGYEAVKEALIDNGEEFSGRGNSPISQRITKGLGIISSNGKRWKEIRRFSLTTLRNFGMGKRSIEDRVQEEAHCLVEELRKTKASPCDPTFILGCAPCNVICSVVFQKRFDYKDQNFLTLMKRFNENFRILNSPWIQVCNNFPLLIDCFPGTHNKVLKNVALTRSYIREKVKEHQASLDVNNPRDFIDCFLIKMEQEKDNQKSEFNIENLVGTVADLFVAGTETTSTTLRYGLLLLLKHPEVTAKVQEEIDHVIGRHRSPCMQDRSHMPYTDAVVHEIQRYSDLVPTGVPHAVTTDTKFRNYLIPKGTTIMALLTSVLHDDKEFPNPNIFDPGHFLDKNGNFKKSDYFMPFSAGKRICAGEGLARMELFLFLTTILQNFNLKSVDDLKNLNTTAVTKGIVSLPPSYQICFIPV

[9] = Cardiotoxicity in human iPSC-CM assessed as calcium transients at 10 uM by CTCM assay; assay type: toxicity, cell-based
[10] = Chromatographic hydrophobicity index, log D of the compound at pH 7.4 by UPLC-TOF analysis; assay type: physicochemical; details: buffer
Cytochrome P450 3A4 = Cytochrome P450 3A4 (Homo sapiens, UniProt P08684); experiment: Inhibition of recombinant human CYP3A4 by fluorescence microplate reader assay; assay type: ADME
Cytochrome P450 2C9 = Cytochrome P450 2C9 (Homo sapiens, UniProt P11712); experiment: Inhibition of recombinant human CYP2C9 by fluorescence microplate reader assay; assay type: ADME
[11] = Cardiotoxicity in human iPSC-CM assessed as calcium transients at 1 uM by CTCM assay; assay type: toxicity, cell-based
Cytochrome P450 2D6 = Cytochrome P450 2D6 (Homo sapiens, UniProt P10635); experiment: Inhibition of recombinant human CYP2D6 by fluorescence microplate reader assay; assay type: ADME
[12] = target: Voltage-gated inwardly rectifying potassium channel KCNH2 (Homo sapiens, UniProt Q12809); experiment: […] from human ERG by PatchXpress assay; assay type: toxicity
[13] = Cardiotoxicity in human iPSC-CM assessed as calcium transients at 0.1 uM by CTCM assay; assay type: toxicity, cell-based
[14] = Intrinsic clearance in human liver microsomes; assay type: ADME, Microsome; details: read-out: CLH
KMS-12-PE [15] = experiment: Induction of apoptosis in human KMS-12-PE cells; assay type: functional, cell-based

Induced myeloid leukemia cell differentiation protein Mcl-1, sequence (Q07820 whole entry): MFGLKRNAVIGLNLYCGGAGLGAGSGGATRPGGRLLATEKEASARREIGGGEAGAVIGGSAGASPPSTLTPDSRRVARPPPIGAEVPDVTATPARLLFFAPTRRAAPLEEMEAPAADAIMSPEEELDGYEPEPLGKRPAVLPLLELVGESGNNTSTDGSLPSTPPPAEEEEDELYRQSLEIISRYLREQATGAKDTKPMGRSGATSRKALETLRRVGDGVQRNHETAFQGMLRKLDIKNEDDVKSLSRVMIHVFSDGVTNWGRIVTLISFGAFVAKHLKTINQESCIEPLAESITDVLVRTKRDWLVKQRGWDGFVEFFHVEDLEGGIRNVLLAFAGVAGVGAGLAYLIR
Voltage-gated inwardly rectifying potassium channel KCNH2, sequence (Q12809 whole entry): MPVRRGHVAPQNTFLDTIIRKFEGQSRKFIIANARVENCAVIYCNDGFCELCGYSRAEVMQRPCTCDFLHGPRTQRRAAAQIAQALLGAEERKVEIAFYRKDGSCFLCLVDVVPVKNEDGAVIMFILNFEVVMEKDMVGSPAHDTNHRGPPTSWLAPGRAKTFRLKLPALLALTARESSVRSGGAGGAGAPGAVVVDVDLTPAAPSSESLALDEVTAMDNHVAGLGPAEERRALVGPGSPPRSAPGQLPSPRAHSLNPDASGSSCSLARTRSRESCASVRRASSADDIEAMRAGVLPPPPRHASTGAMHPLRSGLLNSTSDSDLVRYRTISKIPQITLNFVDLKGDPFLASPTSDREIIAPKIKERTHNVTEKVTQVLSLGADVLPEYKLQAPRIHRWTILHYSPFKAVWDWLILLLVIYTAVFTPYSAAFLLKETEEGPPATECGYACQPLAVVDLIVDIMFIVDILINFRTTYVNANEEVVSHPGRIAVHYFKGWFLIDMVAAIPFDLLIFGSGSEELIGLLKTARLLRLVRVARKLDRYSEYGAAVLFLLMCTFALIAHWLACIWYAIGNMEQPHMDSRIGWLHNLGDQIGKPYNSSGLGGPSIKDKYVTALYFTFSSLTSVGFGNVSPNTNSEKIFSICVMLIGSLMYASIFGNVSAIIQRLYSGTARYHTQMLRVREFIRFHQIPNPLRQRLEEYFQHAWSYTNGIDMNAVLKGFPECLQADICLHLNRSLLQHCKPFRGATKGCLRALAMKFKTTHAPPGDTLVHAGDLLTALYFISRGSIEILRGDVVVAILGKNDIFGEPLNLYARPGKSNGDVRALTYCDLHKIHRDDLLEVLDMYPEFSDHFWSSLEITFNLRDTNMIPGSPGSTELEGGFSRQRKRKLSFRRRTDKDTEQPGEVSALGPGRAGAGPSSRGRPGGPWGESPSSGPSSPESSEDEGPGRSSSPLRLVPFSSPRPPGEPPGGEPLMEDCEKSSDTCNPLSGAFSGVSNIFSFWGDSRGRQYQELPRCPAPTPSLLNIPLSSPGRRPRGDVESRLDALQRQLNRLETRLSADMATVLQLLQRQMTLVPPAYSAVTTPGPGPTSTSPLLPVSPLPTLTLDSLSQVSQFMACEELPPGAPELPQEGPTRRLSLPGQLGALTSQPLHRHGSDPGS
Cytochrome P450 2C19, sequence (P33261 whole entry): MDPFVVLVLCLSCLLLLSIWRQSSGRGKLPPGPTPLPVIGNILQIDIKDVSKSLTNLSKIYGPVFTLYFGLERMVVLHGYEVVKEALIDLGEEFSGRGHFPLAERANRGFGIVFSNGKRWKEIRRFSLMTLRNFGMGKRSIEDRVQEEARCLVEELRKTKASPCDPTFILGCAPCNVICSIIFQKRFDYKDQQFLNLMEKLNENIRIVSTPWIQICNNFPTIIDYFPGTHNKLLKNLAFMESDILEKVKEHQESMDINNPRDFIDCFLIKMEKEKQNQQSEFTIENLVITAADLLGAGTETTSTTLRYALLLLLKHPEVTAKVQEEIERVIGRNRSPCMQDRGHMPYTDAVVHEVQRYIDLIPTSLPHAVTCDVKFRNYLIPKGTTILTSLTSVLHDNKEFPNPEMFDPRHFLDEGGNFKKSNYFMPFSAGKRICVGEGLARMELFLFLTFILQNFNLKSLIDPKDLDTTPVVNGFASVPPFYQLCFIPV
Cytochrome P450 2C9, sequence (P11712 whole entry): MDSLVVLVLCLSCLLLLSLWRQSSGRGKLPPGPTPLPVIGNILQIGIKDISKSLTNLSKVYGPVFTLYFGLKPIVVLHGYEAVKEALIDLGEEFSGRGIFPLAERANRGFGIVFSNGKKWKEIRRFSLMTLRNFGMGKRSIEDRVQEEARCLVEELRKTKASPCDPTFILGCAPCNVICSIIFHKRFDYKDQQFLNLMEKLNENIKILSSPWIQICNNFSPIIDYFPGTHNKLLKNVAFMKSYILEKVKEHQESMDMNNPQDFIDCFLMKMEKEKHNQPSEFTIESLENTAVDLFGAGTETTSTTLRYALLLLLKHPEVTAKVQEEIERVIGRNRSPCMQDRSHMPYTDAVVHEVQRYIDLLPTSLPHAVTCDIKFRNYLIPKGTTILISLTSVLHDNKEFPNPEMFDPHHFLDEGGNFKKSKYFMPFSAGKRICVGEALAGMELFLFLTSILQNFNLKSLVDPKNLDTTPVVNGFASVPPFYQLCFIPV
Cytochrome P450 3A4, sequence (P08684 whole entry): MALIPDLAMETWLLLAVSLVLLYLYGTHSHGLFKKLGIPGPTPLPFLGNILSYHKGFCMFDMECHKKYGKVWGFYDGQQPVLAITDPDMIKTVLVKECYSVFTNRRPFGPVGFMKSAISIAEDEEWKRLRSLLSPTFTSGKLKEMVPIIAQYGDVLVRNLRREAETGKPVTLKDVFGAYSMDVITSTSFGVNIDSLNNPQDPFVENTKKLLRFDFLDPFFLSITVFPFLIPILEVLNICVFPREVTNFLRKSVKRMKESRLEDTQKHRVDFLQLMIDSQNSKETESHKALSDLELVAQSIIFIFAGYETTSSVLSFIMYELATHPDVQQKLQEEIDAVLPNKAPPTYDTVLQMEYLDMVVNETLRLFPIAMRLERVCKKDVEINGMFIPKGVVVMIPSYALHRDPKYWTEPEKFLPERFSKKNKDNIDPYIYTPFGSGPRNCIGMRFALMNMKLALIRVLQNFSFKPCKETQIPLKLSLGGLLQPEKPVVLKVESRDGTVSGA
Cytochrome P450 2D6, sequence (P10635 whole entry): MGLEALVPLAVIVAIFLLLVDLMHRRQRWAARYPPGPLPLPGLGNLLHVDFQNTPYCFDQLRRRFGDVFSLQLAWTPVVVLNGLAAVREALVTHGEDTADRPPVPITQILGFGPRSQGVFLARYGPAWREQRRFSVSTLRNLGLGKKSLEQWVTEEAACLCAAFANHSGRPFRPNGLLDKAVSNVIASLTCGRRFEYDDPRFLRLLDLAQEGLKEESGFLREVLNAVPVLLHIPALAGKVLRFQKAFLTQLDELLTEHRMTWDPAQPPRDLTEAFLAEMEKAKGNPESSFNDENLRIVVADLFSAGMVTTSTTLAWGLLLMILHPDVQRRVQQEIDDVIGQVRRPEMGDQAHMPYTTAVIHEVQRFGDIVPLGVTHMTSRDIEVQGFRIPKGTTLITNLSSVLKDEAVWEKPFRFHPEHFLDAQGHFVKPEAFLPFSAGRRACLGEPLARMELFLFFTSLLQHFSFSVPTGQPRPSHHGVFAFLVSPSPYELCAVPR

SMILES | AC50 (MOLP-8) [nM] | pKi [1] | Ratio [2] | solubility at 72 h [3] [µM] | solubility at 72 h [4] [µM] | other results
COCCOCCn1nc(C)c2c1CSCc1cc(n(C)n1)CCc1cc(c3ccc(F)cc3c1)OCCCn1c(C(=O)O)c(C)c3c-2c(Cl)ccc31 | 12 |  |  |  |  | 
Cc1nn(C)c2c1CSCc1cc(n(C)n1)CCc1cc(c3ccccc3c1)OCCCc1c(C(=O)[O-])n(C)c3c-2c(Cl)ccc13.[Na+] | 45 | 10.49 | 1406 | < 0.04 | 210 | 
COCCOCCc1nn(C)c2c1CSCc1cc(n(C)n1)CCc1cc(c3ccc(F)cc3c1)OCCCc1c(C(=O)O)n(C)c3c-2c(Cl)ccc13 | 16 | 10.89 | 1230 | < 0.29 | 460 (≈ 350 µg/mL) | 
COCCOCc1nn(C)c2c1CSCc1cc(n(C)n1)CCc1cc(c3ccc(F)cc3c1)OCCCc1c(C(=O)O)n(C)c3c-2c(Cl)ccc13 | 14 | 10.74 | 777 | < 0.02 | 580 (≈ 433 µg/mL) | pIC50 (Cytochrome P450 2C19): < 4.70; Activity [5]: Non-Toxic; AC50 (KMS-12-PE [6]): > 30000 nM; Activity [7]: Non-Toxic; microsomal CLint [8]: 157 µL/min/mg; pIC50 (Cytochrome P450 1A2): < 4.70; pIC50 (Cytochrome P450 2C8): 5.02; Activity [9]: Non-Toxic; chromatographic logD [10]: 2.49; pIC50 (Cytochrome P450 3A4): < 4.70; pIC50 (Cytochrome P450 2C9): 4.72; Activity [11]: Non-Toxic; pIC50 (Cytochrome P450 2D6): < 4.70; pIC50 [12]: < 4.52; Activity [13]: Non-Toxic; microsomal CLint [14]: 48 µL/min/mg; AC50 (KMS-12-PE [15]): 111 nM
Cn1nc2cc1CCc1cc(c3ccc(F)cc3c1)OCCCc1c(C(=O)O)n(CCN3CCOCC3)c3c(c(Cl)ccc13)-c1c(cnn1C)CSC2 | 76 | 10.70 | 3800 | 580 (≈ 439 µg/mL) | 550 (≈ 417 µg/mL) | pIC50 (Cytochrome P450 2C19): < 4.70; Activity [5]: Non-Toxic; AC50 (KMS-12-PE [6]): > 30000 nM; Activity [7]: Non-Toxic; microsomal CLint [8]: 24 µL/min/mg; pIC50 (Cytochrome P450 1A2): < 4.70; pIC50 (Cytochrome P450 2C8): 5.25; Activity [9]: Non-Toxic; chromatographic logD [10]: 2.53; pIC50 (Cytochrome P450 3A4): 5.02; pIC50 (Cytochrome P450 2C9): < 4.70; Activity [11]: Non-Toxic; pIC50 (Cytochrome P450 2D6): 4.98; pIC50 [12]: < 4.52; Activity [13]: Non-Toxic; microsomal CLint [14]: 43 µL/min/mg; AC50 (KMS-12-PE [15]): 407 nM
Cn1nc2cc1CCc1cc(c3ccc(F)cc3c1)OCCCc1c(C(=O)O)[nH]c3c(c(Cl)ccc13)-c1c(cnn1C)CSC2 | 202 | 10.33 | 4300 |  |  | 
Cn1nc2cc1CSc1cc(c3ccccc3c1)OCCCc1c(C(=O)O)n(C)c3c(c(Cl)ccc13)-c1c(cnn1C)CSC2 |  |  | 738 and >900 | < 0.55 | < 0.49 | 
Cc1nn(C)c2c1CSCc1cc(n(C)n1)CCc1cc(c3ccc(F)cc3c1)OCCCc1c(C(=O)[O-])n(C)c3c-2c(Cl)ccc13.[Na+] | 10 | 10.39 | 243 | < 0.03 | 550 | 
COCCOCc1nn(C)c2c1CSCc1cc(n(C)n1)CCc1cc(c3ccccc3c1)OCCCc1c(C(=O)O)n(C)c3c-2c(Cl)ccc13 | 43 | 10.64 | 1870 | < 0.06 | 590 (≈ 430 µg/mL) | 
COCCOCCn1c(C(=O)O)c2c3ccc(Cl)c(c31)-c1c(cnn1C)CSCc1cc(n(C)n1)CCc1cc(c3ccc(F)cc3c1)OCCC2 | 52 | 10.70 | 2600 | < 0.23 | 520 (≈ 388 µg/mL) | 
Cc1nn(C)c2c1CSCc1cc(n(C)n1)CSc1cc(c3ccccc3c1)OCCCc1c(C(=O)O)n(C)c3c-2c(Cl)ccc13 | 54 | 10.40 | 1350 | < 0.27 | 9.7 (≈ 6.52 µg/mL) | 
CN(C)CCn1c(C(=O)O)c2c3ccc(Cl)c(c31)-c1c(cnn1C)CSCc1cc(n(C)n1)CCc1cc(c3ccc(F)cc3c1)OCCC2 | 120 | 10.47 | 3530 |  |  | 
COCCn1c(C(=O)O)c2c3ccc(Cl)c(c31)-c1c(cnn1C)CSCc1cc(n(C)n1)CCc1cc(c3ccc(F)cc3c1)OCCC2 | 43 | 10.66 | 1954 | < 0.02 | 10.4 (≈ 7.3 µg/mL) | 
